From patent US20220143152A1, “USE OF PEPTIDE DERIVED FROM H-REV107” (GJMEDI INC., priority 2019, published 2022)
Blank lines part the entries; values can stand above or below the molecule they belong to.

Key:
[1] = system: AsPC-1 (pancreatic cancer) cell-line; type: cell-based; conditions: 72 h
Procedure: (§1) Cancer cell-lines used in this example were SW480 (colon cancer), AsPC-1 (pancreatic cancer), NCI-H23 (lung cancer), NCI-H460 (lung cancer) and HCT116 (colon cancer) cell-lines. Specifically, for HCT116 and NCI-H460 cell-lines, 100 μl of a culture medium containing 2×10^3 cells per well; for SW480 and NCI-H23 cell-lines, 100 μl of a culture medium containing 5×10^3 cells per well; and, for AsPC-1 cell-line, 100 μl of a culture solution containing 1×10^4 cells per well, respectively, were seeded. The seeded cells were cultured for 24 hours for adhesion to the well, and the medium was changed. […] After completion of the culture, a cell counting kit-8 (CCK-8) solution (10 μl/well) was added, and the cells were further cultured for 4 hours in a CO2 incubator maintained at 37° C.

[2] = system: SW480 (colon cancer) cell-line; type: cell-based; conditions: 72 h
Procedure: as §1

[3] = system: NCI-H460 (lung cancer) cell-line; assay: Cancer inhibitory activity, CCK-8; type: cell-based; conditions: NCI-H460, 72 hours treatment
Procedure: as §1

[4] = system: HCT116 (colon cancer) cell-line; assay: Cancer inhibitory activity, CCK-8; type: cell-based; conditions: HCT-116, 72 hours treatment
Procedure: as §1

[5] = system: NCI-H23 (lung cancer) cell-line; assay: Cancer inhibitory activity, CCK-8; type: cell-based; conditions: NCI-H23, 72 hours treatment
Procedure: as §1

mutant KRAS G12V = mutant KRAS G12V (Homo sapiens, UniProt P01116, G12V); assay: GTP binding assay; type: biochemical; conditions: in the presence of H-REV107 protein, FIG. 3a
Procedure: The prepared mixture was incubated with a binding solution (50 mM Hepes (pH 7.5), 100 mM NaCl, 2 mM MgCl2, 1 mM EDTA and 1 mM DTT). The culture was passed through Ni-NTA resin and then bound at 4° C. […] GTP (2,500 cpm/pmol) and […] To terminate binding, a washing buffer (20 mM Tris-HCl (pH 7.4), 100 mM NaCl and 2 mM MgCl2) was added. After washing, the bound protein was eluted using 200 mM imidazole. In this example, bovine serum albumin was used as a negative control. Radioactive GTP bound to the protein was quantified by a liquid scintillation counter, and the results thereof are shown in FIG. 3.

GI50 [1]: 417 µM | GI50 [2]: 358 µM | GI50 [3]: millimolar (mM) range | GI50 [4]: millimolar (mM) range | GI50 [5]: millimolar (mM) range
Molecule: CC(C)C[C@H](N)C(=O)N[C@@H](Cc1ccc(O)cc1)C(=O)N[C@@H](CC(=O)O)C(=O)N[C@H](C(=O)N[C@@H](C)C(=O)NCC(=O)N[C@@H](CO)C(=O)N[C@@H](CC(=O)O)C(=O)N[C@@H](CCCCN)C(=O)N[C@@H](Cc1ccc(O)cc1)C(=O)O)C(C)C [CY101]

radioactive GTP binding activity of the mutant KRAS G12V (mutant KRAS G12V): somewhat reduced
B1: H-REV107 protein: H-REV107 (HRAS-like suppressor 3), a growth inhibitory RAS target gene product (protein, UniProt P53816 1-162, looked up)
Phospholipase A and …: MRAPIPEPKPGDLIEIFRPFYRHWAIYVGDGYVVHLAPPSEVAGAGAASVMSALTDKAIVKKELLYDVAGSDKYQVNNKHDDKYSPLPCSKIIQRAEELVGQEVLYKLTSENCEHFVNELRYGVARSDQVRDVIIAASVAGMGLAAMSLIGVMFSRNKRQKQ
